Values after ≈ are worked out from the molar mass of the structure shown.
Columns and labels:
[1] = tested on: Staphylococcus aureus ATCC 700699 (MRSA); test: minimum inhibitory concentration; extreme values may be limits of the assay
Summary of the method: (§1)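 Broth microdilution in 96-well plates, following CLSI guidance with a resazurin redox read-out, was used to test methicillin-susceptible and methicillin-resistant Staphylococcus aureus. Compounds ranging from 0 to 100 µM were incubated with the bacteria at 37°C for 24 h, after which 30 µl of 0.015% resazurin was added for 2–4 h, and every plate carried positive controls. The minimum inhibitory concentration was taken as the lowest concentration at which wells stayed blue instead of turning pink, and runs were performed at least twice in triplicate.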

[2] = tested on: Staphylococcus aureus ATCC 29213 (MSSA); test: as above
Summary of the method: as §1

| SMILES | minimum inhibitory concentration [1] [µM] | minimum inhibitory concentration [2] [µM] |
| --- | --- | --- |
| CC1COC(Cn2cncn2)(c2ccc(Oc3ccc(Cl)cc3)cc2Cl)O1 (stereo not drawn) | > 50 | > 50 |
| CS(=O)(=O)Cc1nc2ccccc2oc1=O | > 50 | > 50 |
| Nc1ncc(Br)cc1-c1nc2cc(Cl)cnc2[nH]1 | > 50 | > 50 |
| CCOC(=O)NC(=O)c1ccsc1NC(=O)c1nc2ccccc2s1 | > 50 | > 50 |
| CC(C)(C)C(O)C(Oc1ccc(-c2ccccc2)cc1)n1cncn1 (stereo not drawn) | > 50 | > 50 |
| O=C(C1CCN(c2nnc(-n3cccc3)s2)CC1)N1CCC(Cc2ccccc2)CC1 | > 50 | > 50 |
| Nc1ccc(C(=O)Nc2ccc(-c3nc4ccccc4o3)cc2)cc1 | > 50 | > 50 |
| c1ccc(C[C@@H]2CN(c3nccc(Oc4ccc(-n5ccnc5)cc4)n3)CCN2)cc1 | > 50 | > 50 |
| CCOc1ccc(-c2nc(CNCCc3ccc(F)cc3)cs2)cc1 | > 50 | > 50 |
| CCN(CC)CCCCCCNc1cc(OC)cc2c(C)ccnc12 | > 50 | > 50 |
| CS(=O)(=O)c1ccccc1C(=O)N(Cc1ccccc1)c1ccccc1 | > 50 | > 50 |
| CCOc1ccccc1NC(C)C(=O)Nc1cc(C(F)(F)F)ccc1N1CCOCC1 (stereo not drawn) | > 50 | > 50 |
| CC(C)(C)OC(=O)N1CCC(Cn2nc(-c3cnc4ccccc4c3)c3c(N)ncnc32)CC1 | > 50 | > 50 |
| O=S(=O)(c1ccc(Cl)cc1)N1CCN(C(=S)NCc2ccco2)CC1 | > 50 | > 50 |
| C[C@H](C(N)=O)N1CCCC[C@H]1c1ccc(OCc2cccc(F)c2)cc1 | > 50 | > 50 |
| Cc1ccc(C(=O)Nc2ccc(S(=O)(=O)O)c3cc(S(=O)(=O)O)cc(S(=O)(=O)O)c23)cc1NC(=O)c1cccc(NC(=O)Nc2cccc(C(=O)Nc3cc(C(=O)Nc4ccc(S(=O)(=O)O)c5cc(S(=O)(=O)O)cc(S(=O)(=O)O)c45)ccc3C)c2)c1 | > 50 | > 50 |
| Nc1nc2cc(-c3cncc(Oc4ccc(F)cc4)c3)ccc2[nH]1 | 50 (≈ 16 µg/mL) | 50 (≈ 16 µg/mL) |
| CN1CCCN(C(c2ccccc2)c2ccc(Cl)cc2)CC1 (stereo not drawn) | > 50 | > 50 |
| CC(C)(C)n1nc(Cc2ccc(F)c(Cl)c2)c2c(N)ncnc21 | > 50 | > 50 |
| FC(F)(F)c1cccc(-c2nc3c(NCc4ccncc4)nccc3[nH]2)c1 | > 50 | > 50 |
| CC(Oc1ccccc1)C(=O)Nc1nc(-c2ccccn2)cs1 (stereo not drawn) | 50 (≈ 16.3 µg/mL) | 50 (≈ 16.3 µg/mL) |
| CC[C@@H]([C@H](C)O)n1ncn(-c2ccc(N3CCN(c4ccc(OC[C@@H]5CO[C@@](Cn6cncn6)(c6ccc(F)cc6F)C5)cc4)CC3)cc2)c1=O | > 50 | > 50 |
| Brc1cncc(-c2cc(NCCCn3ccnc3)nc(-c3ccccc3)n2)c1 | > 50 | > 50 |

| SMILES | minimum inhibitory concentration [1] [µM] | minimum inhibitory concentration [2] [µM] |
| --- | --- | --- |
| c1ccc(Oc2ccc(-c3cc(N4CCOCC4)[nH]n3)cc2)cc1 | > 50 | > 50 |
| CC(=O)NCC1CN(c2ccc(-c3ccc(CNCc4cn[nH]n4)cc3)c(F)c2)C(=O)O1 (stereo not drawn) | 6.25 (≈ 2.74 µg/mL) | 6.25 (≈ 2.74 µg/mL) |
| Cc1cc(C)n(-c2ccc(NC(=O)C3CCN(Cc4cnc(C)s4)CC3)cc2)n1 | > 50 | > 50 |
| Cc1cc(Cl)ccc1NC(=O)CCc1ccc(S(=O)(=O)NCC(C)C)cc1 | > 50 | > 50 |
| CN1CCC(c2cc(-c3ccncc3)c(-c3ccc(F)cc3)[nH]2)CC1 | > 50 | > 50 |
| c1csc(-c2cnc3sc(NCC4CCOCC4)nn23)c1 | > 50 | > 50 |
| CC(=O)NC[C@H]1CN(c2ccc(N3CCSCC3)c(F)c2)C(=O)O1 | 3.12 (≈ 1.1 µg/mL) | 6.25 (≈ 2.21 µg/mL) |
| COc1ccc(C2CC(c3cccs3)=NN2C(=O)c2ccco2)cc1OC (stereo not drawn) | > 50 | > 50 |
| COc1cc(-c2cc(-c3ccc(S(C)(=O)=O)cc3)cnc2N)ccc1O | > 50 | > 50 |
| Clc1ccc(Cl)c(CO[C@H]2CCCC[C@@H]2n2ccnc2)c1 | > 50 | > 50 |
| COc1ccc(C(=N)N)cc1-c1cn(-c2ccc(C(=N)N)cc2)nn1 | > 50 | > 50 |
| CCC(C)NC(=O)c1ccc(NC(=O)C2(c3ccccc3)CCCC2)cc1 (stereo not drawn) | > 50 | > 50 |
| Cc1cc(NC(=O)c2ccc(Oc3ccc(Cl)cc3O)o2)no1 | 50 (≈ 16.7 µg/mL) | > 50 |
| O=C(OCc1ccccc1)N1CCC(c2cc(-c3ccncc3)c(-c3ccc(F)cc3)[nH]2)CC1 | > 50 | > 50 |
| CC(=O)N1CCc2cc3nc(C)cc(C)c3cc21 | > 50 | > 50 |
| CN1CCN(c2nccc3nc(-c4ccc(F)c(F)c4)[nH]c23)CC1 | > 50 | > 50 |
| COc1ccc(CN2CCOc3ccc(C(C)(O)CN(C)C)cc3C2)cc1C (stereo not drawn) | > 50 | > 50 |
| Cc1ccc2[nH]c3c(NCCN(C)C)ncnc3c2c1 | > 50 | > 50 |
| CCCCc1ccc(NC(=O)Nc2ccc(O[C@H]3CCCC[C@@H]3N(C)c3ccccc3)c(F)c2)cc1 | > 50 | > 50 |
| COc1cc(OC)cc(C(=O)NCC2Cc3cc(Cl)cc(-c4ccncc4)c3O2)c1 (stereo not drawn) | > 50 | > 50 |
| CNc1snc(C)c1C(=O)NCCOc1ccc(OC)cc1 | > 50 | > 50 |
| COc1nc2ccc(Br)cc2cc1[C@@H](c1ccccc1)[C@@](O)(CCN(C)C)c1cccc2ccccc12 | > 50 | > 50 |
| COc1ccc(C2(C(=O)Nc3ccc(Br)cc3)CCCC2)cc1 | > 50 | > 50 |

| SMILES | minimum inhibitory concentration [1] [µM] | minimum inhibitory concentration [2] [µM] |
| --- | --- | --- |
| CC(C)(C)C(=O)N(CCCCCCN1C[C@H](O)[C@@H](O)[C@H](O)[C@H]1CO)C1CCCCCC1 | > 50 | > 50 |
| Cc1ccc2cc(C3NC(=O)c4ccccc4N3)c(Cl)nc2c1 (stereo not drawn) | > 50 | > 50 |
| Cc1ncc(-c2ccnc(Nc3ccc(S(C)(=O)=O)cc3)n2)n1C(C)C | > 50 | > 50 |
| Clc1cccc(C(c2ccc(CN3CCNCC3)cc2)n2ccnc2)c1 (stereo not drawn) | > 50 | > 50 |
| CCN(CC)S(=O)(=O)c1ccc(Cl)c(C(=O)Nc2ccc3nc(C)sc3c2)c1 | > 50 | > 50 |
| O=C(Nc1cnc2ccccc2c1)c1cccc(-n2cnnn2)c1 | > 50 | > 50 |
| Clc1ccc(CN2CCN(C3=NCCN3)CC2)cc1Cl | > 50 | > 50 |
| Cn1ccnc1CNCCS(=O)(=O)c1cccc(Nc2ccc(-c3cccc(F)c3)cn2)c1 | > 50 | > 50 |
| COc1cccn2c(C(=O)N3CCCCC3)c(C(F)(F)F)nc12 | > 50 | > 50 |
| CCc1ccc(C(NCc2nc(N)nc(N(C)C)n2)C(C)C)cc1 (stereo not drawn) | > 50 | > 50 |
| CCc1nc2ccc(C(=O)NCc3ccc4c(c3)OCO4)cn2c1N(C)Cc1cccs1 | > 50 | > 50 |
| FC(F)(F)c1ccc(N(c2cccnc2)C2CCN(c3ccc(C(F)(F)F)cn3)CC2)cc1 | > 50 | > 50 |
| NC(CC(=O)c1ccc(Cl)cc1Cl)C(Cl)(Cl)Cl (stereo not drawn) | > 50 | > 50 |
| Cc1nnc(NCc2cccc(Cl)c2)c2ccccc12 | > 50 | > 50 |
| c1ccc(-c2[nH]c3ccccc3c2C(c2ccccn2)N2CCCC2)cc1 (stereo not drawn) | > 50 | > 50 |
| N#Cc1nc(-c2ccccc2F)oc1NCCc1ccccc1 | > 50 | > 50 |
| NC(=O)c1cc(-c2ccsc2)ccc1OCCOc1ccccc1 | > 50 | > 50 |
| Cc1ccc2c(c1C)NC(=O)C21NN=C(c2ccccc2)S1 (stereo not drawn) | > 50 | > 50 |
| CO[C@@H]1CN(c2ccc(C#CC3(O)CN4CCC3CC4)c(Cc3ccccc3)n2)C[C@H]1O (stereo partly drawn) | > 50 | > 50 |
| COC(=O)c1c(NC(=O)c2cc3ccccc3oc2=O)sc2c1CCN(Cc1ccccc1)C2 | > 50 | > 50 |
| COc1ccc(-c2cncc3ccc(C(=O)NCCCn4ccnc4)nc23)cc1 | > 50 | > 50 |
| O=C(c1cc2ccccc2o1)N1CCN(Cc2ccc3c(c2)OCO3)CC1 | > 50 | > 50 |
| CCNC(=O)C(C)Nc1nc(-c2cccnc2)nc2sc(C)c(C)c12 (stereo not drawn) | > 50 | > 50 |
